# Measured values reported in patent US20030040478A1, “Chemotherapy treatment” (priority 2002, published 2003).
# Key:
# [1] = tested on: irinotecan-treated mice; settings: mouse, in vivo
# Procedure: (§1) FIG. 2. (A) Prevalence of positive bacterial aerobic cultures from mesenteric, splenic, and liver homogenates and whole blood. Groups of mice (n=20 mice for each treatment group) were pretreated for 3 days with either saline or h[Gly2]-GLP-2 as shown in FIG. 1A and euthanized 96 hrs after commencing irinotecan treatment (two injections of 280 mg/kg per dose). *=P<0.05, saline versus h[Gly2]-GLP-2 treated mice after irinotecan. […] (B) The leukocyte count in saline- and h[Gly2]-GLP-2 treated control and irinotecan-treated mice. + and *=p<0.05 for saline- and h[Gly2]-GLP-2-treated groups versus irinotecan-treated mice. #=P<0.05, irinotecan-treated mice pretreated with saline versus h[Gly2]-GLP-2.
# Microbiology: At various time points following chemotherapy administration, aliquots of whole blood and tissue homogenates obtained using sterile technique were plated on blood agar plates and incubated at 37° C. for 48 hrs.
# [2] = tested on: rodents with indomethacin-induced intestinal injury; settings: Boushey et al. 1999, cited from earlier work
# [3] = tested on: irinotecan-treated CD1 mice, jejunum and colon crypts; experiment: Crypt survival and cell number per hemi-crypt (histology) after irinotecan; format: in vivo, mouse; settings: small and large intestine following irinotecan; FIGS. 3A-D
# Procedure: FIG. 3. Mean crypt survival (A and C) and mean cell number per hemi-crypt (B and D) from the midjejunum (A and B) and colon (C and D) of control and irinotecan-treated CD1 mice administered either saline (vehicle) or h[Gly2]-GLP-2 as a 3 day pretreatment regimen. Dotted lines represent line of best fit for data shown between 60 and 96 h. Five mice per treatment group were euthanized for analysis commencing immediately prior to the first of two injections of irinotecan (280 mg/kg per dose) and at 12 hr intervals up to 96 hrs. Crypt survival was measured along the entire bowel circumference, and the mean cell number per hemi-crypt determined in 50 consecutive intact crypts per animal. *=P<0.05, **=P<0.001, saline versus h[Gly2]-GLP-2 treated mice.
# Histological Analysis: Four- to six-micrometer histological cross sections from the intestine of each mouse were cut and stained with hematoxylin and eosin and micrometry was performed as described. Boushey, R. P. et al., Am. J. Physiol. 277: E937-E947, 1999. The number of cells per hemi-crypt column and the number of surviving crypts per circumference were measured in both the small and large intestine at 12 h intervals (n=5 mice per time point) following irinotecan administration as previously described. Wright, N. A. et al., Cell Tissue Kinet. 22: 425-50, 1989; Withers, H. R. et al., Int. J. Radiat. […] All slides were scored in a blinded fashion.
# [4] = tested on: irinotecan-treated mice; experiment: Leukocyte count after irinotecan; format: in vivo, mouse; settings: mice following irinotecan treatment
# Procedure: as §1
# Leukocyte Count: Whole blood samples were collected in venipuncture tubes containing EDTA and analyzed using an automated whole blood sorter calibrated for mouse samples. Blood smears were performed on all samples to confirm the automated analysis.
# [5] = mice following indomethacin-induced intestinal injury
# [6] = rodents with indomethacin-induced intestinal injury
compound,measurement,setting,value
CC[C@H](C)[C@H](NC(=O)[C@H](Cc1ccccc1)NC(=O)[C@H](CC(=O)O)NC(=O)[C@H](CCCNC(=N)N)NC(=O)[C@H](C)NC(=O)[C@H](C)NC(=O)[C@H](CC(C)C)NC(=O)[C@H](CC(N)=O)NC(=O)[C@H](CC(=O)O)NC(=O)[C@H](CC(C)C)NC(=O)[C@@H](NC(=O)[C@@H](NC(=O)[C@H](CC(N)=O)NC(=O)[C@H](CCSC)NC(=O)[C@H](CCC(=O)O)NC(=O)[C@H](CC(=O)O)NC(=O)[C@H](CO)NC(=O)[C@H](Cc1ccccc1)NC(=O)[C@H](CO)NC(=O)CNC(=O)[C@H](CC(=O)O)NC(=O)CNC(=O)[C@@H](N)Cc1c[nH]cn1)[C@@H](C)O)[C@@H](C)CC)C(=O)N[C@@H](CC(N)=O)C(=O)N[C@@H](Cc1c[nH]c2ccccc12)C(=O)N[C@@H](CC(C)C)C(=O)N[C@H](C(=O)N[C@@H](CCC(N)=O)C(=O)N[C@H](C(=O)N[C@@H](CCCCN)C(=O)N[C@H](C(=O)N[C@H](C(=O)N[C@@H](CC(=O)O)C(=O)O)[C@@H](C)O)[C@@H](C)CC)[C@@H](C)O)[C@@H](C)CC [h[Gly2]-GLP-2],bacterial colonies in homogenates,[1],No bacterial colonies were detected
"GLP-2: 33 amino acid product of the glucagon gene, an intestinotrophic peptide secreted by enteroendocrine cells (HADGSFSDEMNTILDNLAARDFINWLIQTKITD; Glucagon-like peptide 2; UniProt P01275 146-178, looked up)",bacterial infection in the liver and spleen,[2]; [5],decreased bacterial infection in the liver and spleen
same,circulating bacteremia,[2]; [5],markedly reduced circulating bacteremia
same,epithelial damage,[2]; [6],reduces epithelial damage
same,survival,[2]; [6],improves survival
"CCc1c2c(nc3ccc(OC(=O)N4CCC(N5CCCCC5)CC4)cc13)-c1cc3c(c(=O)n1C2)COC(=O)[C@]3(O)CC [irinotecan, 7-ethyl-10-[4-(1-piperidino)-1-piperidino] carbonyloxycamptothecin]",number of crypts and number of cells within each crypt,[3],significant reduction in both the number of crypts and in the number of cells within each crypt
same,leukocyte count after irinotecan treatment,[4],significant leukopenia
